From the NIST ThermoML archive (doi:10.1021/je100228t)

Details: for surface tension liquid-gas: Maximal bubble pressure; for mass density: 101.33 kPa, Liquid

CCn1cc[n+](C)c1.N#C[B-](C#N)(C#N)C#N [1-ethyl-3-methylimidazolium tetracyanoborate]
Details | mass density [kg/m3] | surface tension liquid-gas [mN/m]
283.15 K | 1048.37 | 49.4
288.15 K | 1044.37 | 48.9
293.15 K | 1040.38 | 48.2
298.15 K | 1036.41 | 47.8
303.15 K | 1032.46 | 47.6
308.15 K | 1028.55 | 47.1
313.15 K | 1024.66 | 46.8
318.15 K | 1020.78 | 46.4
323.15 K | 1016.95 | 46.2
328.15 K | 1013.11 | 45.5
333.15 K | 1009.32 | 45
338.15 K | 1005.54 | 44.8
